# Reference: patent US20180110796A1, “COMPOSITIONS AND METHODS FOR THE TREATMENT OF HBV INFECTION” (Spring Bank Pharmaceuticals, Inc., priority 2015, published 2018)
# Key:
# [1] = tested on: wild type HBV or resistant variants of HBV (polymerase M204V, M204I, L180M, L180M/M204V, N236T); assay: Antiviral assays in cells chronically infected with wild type HBV or resistant variants (Example 4); assay type: cell-based; conditions: added to the cells daily for nine consecutive days
# Description: Antiviral assays were carried out in cells chronically infected with resistant variants of HBV. In order to gauge the efficacy of Formula (IIa) and the antiviral nucleoside analogs lamivudine (3TC) and adefovir dipivoxil (ADV) against the tested strains, the in vitro activity (EC50, μM) was determined using six different cell samples chronically infected with HBV. Each cell sample was infected with either wild type HBV or a resistant variant of HBV, wherein the resistant variants comprise mutations in the HBV polymerase (P) at the following amino acid positions: M204V, M204I, L180M, L180M/M204V, and N236T. In each assay, Formula (IIa), 3TC, or ADV was added to the cells daily for nine consecutive days.
# [2] = tested on: woodchuck hepatitis virus (WHV); assay: Formula (IIa) in combination with entecavir, sequential oral treatment of chronic WHV carrier woodchucks (Example 3); assay type: in vivo, woodchuck (Marmota monax)
# Description: Ten (10) woodchucks chronically infected with WHV were used. Woodchucks were born in captivity and were inoculated at 3 days of age with cWHV7P2a inoculum, then reared until 11 months of age. Prior to the study, woodchucks were confirmed as established chronic carriers of WHV based on established criteria including the presence of WHV surface antigen (WHsAg), antibody against […], and WHV DNA. Woodchucks used in the study were of both gender and approximately between 12 and 14 months of age at the start of the study.
# Two (2) groups of five (5) chronic WHV carrier woodchucks each were used in the study:
# Group 1 was orally treated for 4 weeks with ETV at a daily dose of 0.5 mg/kg starting at T0, followed by add-on treatment with Formula (IIa) for 12 weeks at a daily dose of 30 mg/kg. Woodchucks were then followed for a total of 24 weeks.
# Group 2 was orally treated for 12 weeks with Formula (IIa) at a daily dose of 30 mg/kg starting at T0, followed by add-on treatment with ETV for 4 weeks at a daily dose of 0.5 mg/kg. Woodchucks were then also followed for a total of 24 weeks.
# Formula (IIa) was supplied as a pre-weighed powder in individual containers. An amount of powder sufficient to treat all 10 pre-weighed woodchucks per day with Formula (IIa) was mixed directly with woodchuck diet powder (Dyets Inc., Bethlehem, Pa.) and then suspended with HPLC water. The drug was orally administered with a dose syringe at T0 (Group 2) or after 4 weeks of treatment with ETV (Group 1), and thereafter every day for 12 weeks (84 days). Drug dosing was then followed by an extra 2 ml of woodchuck liquid diet to ensure complete consumption of Formula (IIa).
# ETV was provided as powder. An amount of powder sufficient to treat all 10 woodchucks per day was suspended in isotonic saline at a concentration of 0.5 mg/ml. A volume (ml) of drug solution equivalent to the body weight (kg) of an individual woodchuck was then mixed with approximately 3-5 ml of woodchuck liquid diet and administered orally with a dose syringe at T0 (Group 1) or after 12 weeks of treatment with Formula (IIa) (Group 2), and thereafter every day for 4 weeks (28 days). ETV dosing was followed by an extra 2 ml of woodchuck liquid diet to ensure complete consumption of drug.
# Prior to administration of Formula (IIa) or ETV at T0, then weekly until the end of the study at week 24, whole blood samples were drawn from each woodchuck under ketamine/xylazine anesthesia for determinations of serum WHV DNA, WHsAg, and anti-WHs (see Summary Table below). […] Blood samples were kept at room temperature following collection and serum harvested upon observation of clot retraction. Harvested serum was transferred to microcentrifuge tubes and stored frozen at −70° C. until use.
# The induction of an innate immune response in peripheral blood and liver of woodchucks by combination treatment with Formula (IIa) and ETV were determined via real time PCR-based assays. Whole blood samples were obtained prior to the start of treatment with Formula (IIa) at T0, and then at weeks 4, 10, 16, 20, and 24 (Group 1) or at weeks 6, 12, 16, 20, and 24 (Group 2) (see Summary Table below). Whole blood was drawn into PAXgene blood tubes at the indicated time points and stored at −70° C. until use. Total RNA was isolated from whole blood and treated with DNase using the PAXgene Blood miRNA Kit (Quiagen). This was followed by reverse transcription of mRNA into cDNA and amplification of host immune response genes by real time PCR. Woodchuck cytokine and interferon-stimulated genes included IFN-α, IFN-β, interleukin 6 (IL-6), 2′-5′-oligoadenylate synthetase 1 (OAS-1), interferon-induced 17 kDa protein (ISG15), and interferon gamma-induced protein 10 (IP-10or CXCL10). Woodchuck 18S rRNA expression was used to normalize target gene expression. […]
# [3] = tested on: woodchuck hepatitis virus (WHV); assay: Antiviral activity of Formula (Ia), intraperitoneal, in chronic WHV carrier woodchucks (Example 1); assay type: in vivo, woodchuck (Marmota monax)
# Description: Three groups of five chronic WHV carrier woodchucks were used in this in this study. Formula (Ia) was administered intraperitoneally to two groups for a total of 4 weeks. Groups for drug treatment received Formula (Ia) at either 10 mg/kg/day or 30 mg/kg/day. The third group received physiological saline intraperitoneally and served as placebo-treated controls.
# Blood samples for WHV serology, serum […], and hematological and biochemical profiles were obtained prior to the start of treatment and taken thereafter according to the study design. The body weight of each subject was recorded when the woodchucks were anesthetized and bled. The recorded body weights of the drug-treated woodchucks were compared to the placebo-treated control woodchucks to assess possible drug toxicity. WHsAg and anti-WHs and anti-WHc antibodies were determined qualitatively using established ELISA protocols. Dilutions of serum were used to ensure the detection of these markers […] conditions.
# WHV DNA in serum was initially measured by dot blot hybridization and quantified by comparing signals of test specimens and standards of known WHV DNA concentration using a homologous probe. […] Quantitative WHV nucleic acid analyses were also performed using a real-time PCR assay with samples containing serum WHV DNA below the limit of detection by dot blot analysis. […]
smiles,measurement,setting,value
"CC(C)(C)C(=O)OCOP(=O)(COCCn1cnc2c(N)ncnc21)OCOC(=O)C(C)(C)C [ADV, adefovir dipivoxil, reference compound]","efficacy against cells infected with wild type and resistant HBV strains (in vitro activity, FIG. 31)",[1],efficacious against cells infected with all the HBV strains tested
"C=C1[C@H](CO)[C@@H](O)C[C@@H]1n1cnc2c(=O)[nH]c(N)nc21 [ETV, entecavir, reference compound]",expected suppression of serum viremia,"[2]; ETV 0.5 mg/kg daily oral for 4 weeks, expectation from previous studies",3-4 log10
same,reductions in serum WHV DNA from pretreatment level during the 4 weeks of ETV,"[2]; ETV 0.5 mg/kg daily oral, Group 1",marked reductions
same,reductions in serum WHsAg from pretreatment level during the 4 weeks of ETV administration,"[2]; ETV 0.5 mg/kg, most woodchucks of Group 1",marked reductions
COC1[C@@H](OP(=O)(S)OC[C@H]2O[C@@H](n3cnc4c(N)ncnc43)C[C@H]2O)[C@@H](CO)O[C@H]1n1ccc(=O)[nH]c1=O (stereo partly drawn) [Formula (Ia)],staining intensity of cytoplasmic WHcAg in liver tissues compared to placebo controls,"[3]; 30 mg/kg, end of treatment at week 4",significantly decreased
same,consistent reductions in serum WHsAg and in hepatic expression of WHcAg and WHsAg,"[3]; 10 and 30 mg/kg/day, 4 weeks",not observed on a dose-response basis
